Read-outs that look alike come from different tables or passages of the source.
Columns and labels:
[1] = system: UTI89 biofilm; experiment: UTI89 type 1 dependent biofilm formation (inhibition/prevention) assay on PVC, crystal violet; format: cell-based, uropathogenic E. coli UTI89; settings: Escherichia coli
Summary of the method: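 Prevention: UTI89 grown in LB in PVC wells at 23° C with mannoside at varying concentrations for 48 h, then crystal violet stained and quantified. Disruption: 24 h UTI89 biofilm, mannoside added, grown 16 h more, then crystal violet.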

[2] = target: T1, FimH lectin domain (residues 1-158 of UPEC J96 FimH) (Escherichia coli, UniProt P08191); format: binding
T1 construct: made in house
Procedure: DSF measures the melting temperature change of protein when binding to small molecules. Melting temperature shifts are proportional to the free energy of binding, and melting temperatures increase even as ligand concentration exceeds the Kd.
FimH lectin domain (residues 1-158 of UPEC J96 FimH, without an affinity tag) was purified as described previously. Five micrograms FimH in 5 μl HBS were mixed with HBS to yield a final volume of 50 μl containing compound at a final concentration of 100 μM and a “5×” final concentration of SYPRO Orange (sold as a “5000×” stock in DMSO and mixed with HBS to a working stock of 50× immediately before use: Life Technologies Inc.; Grand Island, N.Y.). Compounds were diluted to 100 μM from stocks in DMSO and compared to matched control wells with FimH alone plus 0.2% DMSO. 50 μl reactions were placed in 96-well clear-bottom PCR plates and subjected to a melt curve from 20-90° C. in 0.5° C. increments of 15 seconds each followed by a fluorescence read of the “HEX” channel in a Bio-Rad CFX96 thermocycler (Bio-Rad, Hercules, Calif.). Melt curves were fitted to the Boltzmann equation to determine the melting temperature (Tm) (y=A2+(A1−A2)/(1+exp((x−x0)/dx)) where x0 is the Tm) using OriginPro 8 (OriginLab, Northampton Mass.).

[3] = format: in vitro ADME; settings: for PAMPA (LogPe): pH 7.4
Procedure: Materials. The assay was carried out using Multiscreen PVDF 96-well plates (Millipore, Billerica, Mass.) using the company's Transporter Receiver Plate. The lipid (dioleyoylphosphotidylcholine (DOPC):Stearic Acid (80:20, wt %) in dodecane was obtained from Avanti Polar lipids (Alabaster, Ala.). Hank's Buffered Salt Solution (HBSS), pH 7.4 was obtained from MediaTech (Manassas, Va.).
Methods. Each of the test compounds was diluted to 2.5 mM in DMSO (Sigma, St Louis, Mo.) and further diluted prior to testing to 2.5 μM in HBSS, pH 7.4. The assay was performed using a Millipore 96-well Multiscreen-IP PAMPA plate, 5 μl of the lipid suspension was directly added to the PVDF membrane of the filter plate. Immediately following the addition of the lipid to the membrane, 200 μl of HBSS solution containing the test compound was added to the donor (upper) chamber. HBSS (300 μl) is also added to the receiver plate and the filter and receiver plates assembled and incubated overnight at room temperature in a moistened sealed bag to prevent evaporation. The concentration in the receiver plate as well as an equilibrium plate, that represents a theoretical, partition-free sample, was determined by HPLC-tandem mass spectrometry. Analysis of each compound was performed in triplicate.
Analysis. Analysis of both the acceptor and equilibrium samples were performed using an AB 3200 triple quadripole mass spectrometer linked to a Shimadzu DGU-20A HPLC with a Prevail C18 column (3 μm, 2.1×10 mm) with a flow rate of 0.35 ml/min. The mobile phase used was A: 0.1% Formic Acid in water, B: 0.1% Formic Acid in methanol. The elation gradient method is described in the table. Data acquisition and peak height determination was performed using Analyst v.1.4.2.
Calculations. The login of the effective permeability (LogPe) was calculated using the following equation
[formula] [formula] Where the drug concentration is the peak areas for the analyte and VD and VA is the volume of the donor and acceptor compartment respectively. The area is the surface area of the PVDF membrane (0.11 cm^2) and time is the incubation in seconds (64,800 sec). Each value is the mean of triplicates performed on the same day.

[4] = target: T2, FimH (Escherichia coli, UniProt Q1R2J4); settings: for HAI Titer EC>50: Table 21;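 as to all read-outs here: hemagglutination inhibition of guinea pig erythrocytes agglutinated by type 1 piliated uropathogenic E. coli via FimH mannose binding, quantified through serial dilutions of compound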
[5] = target: T3, FimH lectin domain (Escherichia coli, UniProt P08191); experiment: biochemical; format: binding, E. coli
T3 construct: made by biotinylating FimH lectin domain^25 at a 1:1 molar ratio with NHS-PEO4-Biotin
Procedure: Samples or buffer (200 μL per well) were dispensed into 96-well microtiter plates (Greiner Bio-One, Monroe N.C.) and maintained at 30° C. with 1000 RPM shaking. Pre-manufactured pins for individual assays were made by biotinylating FimH lectin domain^25 at a 1:1 molar ratio with NHS-PEO4-Biotin (Thermo Fisher, Rockford Ill.), diluting it to 50 μg/ml in 20 mM HEPES pH 7.5, 150 mM NaCl (HBS), immobilizing it on high-binding streptavidin-coated biosensor tips (Super Streptavidin, ForteBio, Inc., Menlo Park, Calif.) for 10 minutes at 30° C., blocking the pins with 10 μg/ml biocytin for 2 minutes, washing in HBS for 1 hour, and rinsing in 15% sucrose in HBS. Pins were then air dried for 30 minutes and stored in their original packaging with a dessicant packet. Assays were performed by re-wetting premade pins with HBS for 15 minutes, then storing them in fresh HBS until use. […] Each experimental pin was referenced to a biocytin-blocked pin to control for instrument drift and a second biocytin-blocked pin that was passed through a duplicate experiment in the same 96-well plate to control for nonspecific binding of the compound to the pin. Kinetics data and affinity constants were generated automatically by the global fitting protocol in ForteBio Data Analysis version 6.3.

[6] = target: T2, FimH; experiment: cell-based; settings: read-out: HAI Titer EC90
[7] = read-out: Biofilm Prevention IC50
[8] = Table 17, Examples 30-36 numbering
[9] = Table 20, Examples 30-36 numbering

CNC(=O)c1cc(C(=O)NC)cc(-c2ccc(OC3O[C@@H](CO)[C@@H](O)[C@H](O)[C@H]3O)c(C(F)(F)F)c2)c1 (stereo partly drawn) [Compound 1JWJ149, N1,N3-dimethyl-5-[3-(trifluoromethyl)-4-[(3R,4S,5S,6S)-3,4,5-trihydroxy-6-(hydroxymethyl)tetrahydropyran-2-yl]oxy-phenyl]benzene-1,3-dicarboxamide]
IC50 [1, 7]: 43 nM
DSF Melting Temp. ([2]; Table 21): 76.15 C.
PAMPA (LogPe) ([3]; 64800 sec, […]): −6.27
HAI Titer EC>90 [4]: 0.008 µM
HAI Titer EC>50 ([4]; ZFH/JWJ codes): 0.008 µM
HAI Titer EC>90 ([4]; Table 22, ZFH/JWJ codes): 0.008 µM

COC(=O)c1cccc(-c2ccc(OC3OC(CO)C(O)C(O)C3O)cc2)c1 (stereo not shown) [Compound 2ZFH236]
PAMPA (LogPe) ([3]; 64800 sec, […]): −4.250
HAI Titer EC>50 [4]: >2500 µM

CNC(=O)c1cccc(-c2ccc(O[C@H]3O[C@H](CO)[C@@H](O)[C@H](O)[C@@H]3O)cc2)c1 [Compound 2]
IC50 [1, 7]: 1350 nM
IC50 ([1]; read-out: biofilm inhibition IC50): 1350 nM
Kd [5]: 0.1 nM
Kd, qualitative [5]: picomolar range
DSF Melting Temp. ([2]; Table 20, compound at 100 μM): 73.38 °C
HAI Titer EC>90 [4, 8]: 0.50 µM
HAI Titer EC>90 [4, 9]: 0.500 µM

OCC1OC(Oc2ccc(-c3ccc(O)cc3)cc2)C(O)C(O)C1O (stereo not shown) [Compound 3ZFH26, 2-(hydroxymethyl)-6-[4-(4-hydroxyphenyl)phenoxy]tetrahydropyran-3,4,5-triol]
PAMPA (LogPe) ([3]; 64800 sec, […]): −8.890

NC(=O)Nc1ccc(-c2ccc(OC3O[C@@H](CO)[C@@H](O)[C@H](O)[C@H]3O)cc2)cc1 (stereo partly drawn) [Compound 4ZFH218, [4-[4-[(3R,4S,5S,6S)-3,4,5-trihydroxy-6-(hydroxymethyl)tetrahydropyran-2-yl]oxyphenyl]phenyl]urea]
PAMPA (LogPe) ([3]; 64800 sec, […]): −4.35
HAI Titer EC>90 [4]: 3.000 µM
HAI Titer EC>50 ([4]; ZFH/JWJ codes): 3.000 µM
HAI Titer EC>90 ([4]; Table 22, ZFH/JWJ codes): 3.000 µM

COC(=O)c1cccc(-c2ccc(OC3O[C@@H](CO)[C@@H](O)[C@H](O)[C@H]3O)c(C(F)(F)F)c2)c1 (stereo partly drawn) [Compound 4ZFH222, methyl 3-[3-(trifluoromethyl)-4-[(3R,4S,5S,6S)-3,4,5-trihydroxy-6-(hydroxymethyl)tetrahydropyran-2-yl]oxy-phenyl]benzoate]
IC50 [1, 7]: 8170 nM
PAMPA (LogPe) ([3]; 64800 sec, […]): −3.91
HAI Titer EC>90 [4]: 0.032 µM
HAI Titer EC>50 ([4]; ZFH/JWJ codes): 0.032 µM
HAI Titer EC>90 ([4]; Table 22, ZFH/JWJ codes): 0.032 µM

CNC(=O)c1cccc(-c2ccc(OC3O[C@@H](CO)[C@@H](O)[C@H](O)[C@H]3O)c(C)c2)c1 (stereo partly drawn) [Compound 4ZFH269, N-methyl-3-[3-methyl-4-[(3R,4S,5S,6S)-3,4,5-trihydroxy-6-(hydroxymethyl)tetrahydropyran-2-yl]oxy-phenyl]benzamide]
IC50 [1, 7]: 159 nM
DSF Melting Temp. ([2]; Table 21): 74.46 C.
PAMPA (LogPe) ([3]; 64800 sec, […]): −3.89
HAI Titer EC>90 [4]: 0.062 µM
HAI Titer EC>50 ([4]; ZFH/JWJ codes): 0.06 µM
HAI Titer EC>90 ([4]; Table 22, ZFH/JWJ codes): 0.062 µM

COC(=O)c1cccc(-c2ccc(O[C@H]3O[C@H](CO)[C@@H](O)[C@H](O)[C@@H]3O)c(Cl)c2)c1 [Compound 4b, Methyl 3-[3-chloro-4-[(2R,3S,4S,5S,6R)-3,4,5-trihydroxy-6-(hydroxymethyl)tetrahydropyran-2-yl]oxy-phenyl]benzoate]
IC50 [1, 7]: 260 nM
PAMPA (LogPe) ([3]; 64800 sec, […]): −4.29
HAI Titer EC>90 [4, 8]: 0.03 µM
fold better HAI activity ([4]; relative to matched pair 1, Examples 30-36 numbering): more than 30 fold
EC90 [6]: 30 nM

COC(=O)c1cccc(-c2ccc(O[C@H]3O[C@H](CO)[C@@H](O)[C@H](O)[C@@H]3O)c(C(F)(F)F)c2)c1 [Compound 4d, Methyl 3-[3-(trifluoromethyl)-4-[(2R,3S,4S,5S,6R)-3,4,5-trihydroxy-6-(hydroxymethyl)tetrahydropyran-2-yl]oxy-phenyl]benzoate]
IC50 [1, 7]: 170 nM
PAMPA (LogPe) ([3]; 64800 sec, […]): −3.91
HAI Titer EC>90 [4, 8]: 0.03 µM
EC90 [6]: 30 nM

O=[N+]([O-])c1ccc(COC2OC(CO)C(O)C(O)C2O)cc1 (stereo not shown) [Compound 5b]
LogPe ([3]; PAMPA): −3.89
PAMPA (LogPe) [3]: −3.89

CNS(=O)(=O)c1cccc(-c2ccc(O[C@H]3O[C@H](CO)[C@@H](O)[C@H](O)[C@@H]3O)cc2)c1 [Compound 19]
Kd ([5]; Table 20, read-out: Octet Kd): 0.49 nM
DSF Melting Temp. ([2]; Table 20, compound at 100 μM): 72.05 °C
HAI Titer EC>90 [4, 9]: 1.000 µM

OC[C@H]1O[C@H](Oc2ccc(-c3cccc(C(F)(F)F)c3)cc2)[C@@H](O)[C@@H](O)[C@@H]1O [Compound 25]
Kd ([5]; Table 20, read-out: Octet Kd): 1.56 nM
DSF Melting Temp. ([2]; Table 20, compound at 100 μM): 68.32 °C

CC(=O)Nc1cccc(-c2ccc(O[C@H]3O[C@H](CO)[C@@H](O)[C@H](O)[C@@H]3O)cc2)c1 [Compound 26]
Kd ([5]; Table 20, read-out: Octet Kd): 1.14 nM
DSF Melting Temp. ([2]; Table 20, compound at 100 μM): 72.30 °C
HAI Titer EC>90 [4, 9]: 2.000 µM

O=C(O)c1cccc(-c2ccc(O[C@H]3O[C@H](CO)[C@@H](O)[C@H](O)[C@@H]3O)cc2)c1 [Compound 30]
Kd ([5]; Table 20, read-out: Octet Kd): 2.21 nM
DSF Melting Temp. ([2]; Table 20, compound at 100 μM): 70.93 °C
HAI Titer EC>90 [4, 9]: 4.000 µM

OC[C@H]1O[C@H](Oc2ccc3ccccc3c2)[C@@H](O)[C@@H](O)[C@@H]1O [Compound 31]
Kd ([5]; Table 20, read-out: Octet Kd): 2.72 nM
DSF Melting Temp. ([2]; Table 20, compound at 100 μM): 70.75 °C
HAI Titer EC>90 [4, 9]: 6.000 µM

COC(=O)c1cccc(O[C@H]2O[C@H](CO)[C@@H](O)[C@H](O)[C@@H]2O)c1 [Compound 32]
Kd ([5]; Table 20, read-out: Octet Kd): 2.72 nM
DSF Melting Temp. ([2]; Table 20, compound at 100 μM): 70.75 °C
HAI Titer EC>90 [4, 9]: 6.000 µM

OCC1OC(Oc2ccc(-c3ccccc3)cc2)C(O)C(O)C1O (stereo not shown) [Compound 33]
Kd [5]: 3 nM
DSF Melting Temp. ([2]; Table 20, compound at 100 μM): 71.17 °C

Reference: US8937167B2 (Washington University, priority 2009, dated 2015)
